According to patent US20260286012A1, “ANTI-OUABAIN NANOBODY AND APPLICATION THEREOF” (priority 2023, published 2026):

What was measured:
[1] = test system: Hela cells; test: Flow cytometry assay for intracellular Ca2+ level; assay type: cell-based; settings: 250 nM ouabain vs control group
Method: The cells were cultured in a 12-well cell culture dish. When the cell growth density reached 60% to 80%, a drug could be added to treat the cells. The medium was removed from the treated cells under dark conditions, and the cells were rinsed with pre-warmed HBSS for three times to eliminate esterases and other substances in the medium to reduce their degradation to an ion probe. 1-5 μM of Fluo4-AM working solution was added, such that the cells were completely covered with the working solution and incubated in a cell incubator for 40 min at a constant temperature. The Fluo4-AM working solution was discarded, and the cells were washed with HBSS for three times to thoroughly remove any remaining dye Subsequently. […]
(§1) High-concentration ouabain can lead to apoptosis of cells. To study the pharmacological effect of ouabain Nb, this study treated Hela cells with ouabain and ouabain Nb, and detected the effects of ouabain and antibody protein on the cell survival rate by an MTT method. […] To further verify the biological activity of ouabain Nb, the Ca^2+ concentration in the HeLa cells was detected by neutralizing ouabain monomers with ouabain Nb. […] After incubation of ouabain Nb (5 μM) and ouabain, the cells were treated and the Ca^2+ concentration was detected.

[2] = test system: Hela cells; test: MTT determination of cell survival rate; assay type: cell-based; set-up: dose or concentration left out as unconfirmed; settings: ouabain for 48 h and 24 h, respectively
Method: By methyl thiazolyl tetrazolium (MTT), the cell survival rate was measured. When the cell density in a 6-well plate reached 80%-90%, the cells were digested, and centrifuged at 1000 rpm for 5 min; a cell precipitate was left, added with 1 mL of culture solution and then resuspended; and the cells were counted with a cell counting plate. 100 µL of cell suspension was added to a 96 ELISA plate at 1×10^4 cells/well, and sterile PBS was added around cell wells. The cells were cultured on a 96-well plate for 12 to 24 h. When the cell growth density reached 60% to 80%, a drug could be added to treat the cells at this point. […] The absorbance of each well was detected with a microplate reader at 490 nm and the cell survival rate was calculated. […]
as §1

## C[C@@H]1O[C@@H](O[C@H]2C[C@@H](O)[C@]3(CO)[C@H]4[C@H](O)C[C@]5(C)[C@@H](C6=CC(=O)OC6)CC[C@]5(O)[C@@H]4CC[C@]3(O)C2)[C@H](O)[C@H](O)[C@H]1O [ouabain, Ouabain]
[1]
  Ca2+ concentration in HeLa cells: significantly higher than that in the control group
[2]
  survival rate of the cells treated with ouabain: reduced to half of the original
